# Source: patent US20240270821A1, “GIP/GLP1/GCG TRI-RECEPTOR AGONISTS AND USES THEREOF” (priority 2023, published 2024)
# Where two headings read alike, the source gives them in different places. Starred links: 1 amine or outer side, 2 acyl side, 3 side chain; linkers in the order of their positions; H or OH if unused. Non-standard residues stand in square brackets, D forms with d. Groups on a side chain read outwards from the residue. No end group written: not given here. *: point of attachment. C18 diacid = O=C(O)CCCCCCCCCCCCCCCCC(=O)*; αMePhe(2-F) = C[C@](N)(Cc1ccccc1F)C(=O)O; γGlu = O=C(O)[C@H](CCC(=O)[*:2])N[*:1]; αMe4Pal = C[C@](N)(Cc1ccncc1)C(=O)O; αMeY = C[C@](N)(Cc1ccc(O)cc1)C(=O)O; 4Pal = N[C@@H](Cc1ccncc1)C(=O)O; αMeL = CC(C)C[C@](C)(N)C(=O)O; αMeS = C[C@](N)(CO)C(=O)O; Orn = NCCC[C@H](N)C(=O)O; AEEA = NCCOCCOCC(=O)O; Aib = CC(C)(N)C(=O)O
# Assays:
# human GLP1-R = human GLP1-R (Homo sapiens, UniProt P43220); test: GLP1-R internalization assay in HEK293 cells; type: cell-based; conditions: for EC50: HEK293 cells expressing SNAP-GLP-1R, read-out: GLP1R Internalization EC50; for Internalization % TOP: normalized to maximum concentration of GLP-1 (100%)
# human GcgR = human GcgR (Homo sapiens, UniProt P47871); test: Functional cAMP activity in the presence of 1% HSA; type: cell-based; conditions: read-out: cAMP Rel EC50, hGcgR
# hGIPR [1] = target: T1, hGIPR (Homo sapiens, UniProt P48546); test: Functional cAMP activation in the presence of 0.1% casein (no HSA); type: cell-based; conditions: read-out: Relative cAMP EC50, hGIPR;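 also: intracellular cAMP rise after 30 min at 37 °C read by HTRF against a standard curve, scaled between buffer alone (0%) and top control ligand concentration (100%), four-parameter fit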
# T1 sequence (P48546 22-466): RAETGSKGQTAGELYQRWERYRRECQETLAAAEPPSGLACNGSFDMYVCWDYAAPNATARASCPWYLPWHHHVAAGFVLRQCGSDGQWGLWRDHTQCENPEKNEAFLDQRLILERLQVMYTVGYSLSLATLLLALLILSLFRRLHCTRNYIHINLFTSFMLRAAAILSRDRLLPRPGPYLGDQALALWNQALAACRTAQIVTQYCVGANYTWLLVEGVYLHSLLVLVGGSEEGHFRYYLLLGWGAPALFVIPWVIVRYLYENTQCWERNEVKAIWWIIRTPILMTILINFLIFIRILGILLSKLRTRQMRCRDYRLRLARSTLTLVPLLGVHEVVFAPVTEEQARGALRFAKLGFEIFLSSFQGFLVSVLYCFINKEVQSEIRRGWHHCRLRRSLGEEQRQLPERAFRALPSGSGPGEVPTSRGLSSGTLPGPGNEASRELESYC
# hGLP-1R [2] = target: T2, hGLP-1R (Homo sapiens, UniProt P43220); test: Functional cAMP activity in the presence of 1% HSA; type: cell-based; conditions: read-out: cAMP Rel EC50, hGLP-1R
# hGcgR = hGcgR (Homo sapiens, UniProt P47871); test: Functional cAMP activation in the presence of 0.1% casein (no HSA); type: cell-based; conditions: read-out: Relative cAMP EC50, hGcgR;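 also: intracellular cAMP rise after 30 min at 37 °C, read by HTRF against a cAMP standard curve, scaled from buffer only (0%) to maximal control ligand response (100%)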
# [3] = system: Intestinal organoid from Göttingen minipig jejunum tissue, 2D monolayer; test: Cell based in vitro permeability (Papp) assay; type: in vitro ADME
# Protocol: Intestinal organoid from Göttingen minipig jejunum tissue and its 2D monolayer are generated using the protocol previously described ([…]-Thiele, […].; Wells, J. M., Optimized procedures for generating an enhanced, near physiological 2D culture system from porcine intestinal organoids. […] After 7 days of culture, organoids are dissociated into single cells by TrypLE (GIbco), and the single cell suspension is added in 24-well transparent transwell inserts (0.3 cm^2, Falcon, BD). […] Samples from the basal compartment are collected at 20 min in the presence of C10. Peptide concentrations in the apical and basal compartments are measured by LC/MS, and the apparent permeability coefficient (Papp) is calculated as previously described (Twarog, C.; Liu, K.; O'Brien, P. J.; Dawson, […] head-to-head Caco-2 assay comparison of the mechanisms of action of the intestinal permeation enhancers: SNAC and sodium caprate (C10).
# hGIPR [4] = target: T1, hGIPR; test: Functional cAMP activity in the presence of 1% HSA; type: cell-based; conditions: read-out: cAMP Rel EC50, hGIPR
# hGLP-1R [5] = target: T2, hGLP-1R; test: Functional cAMP activation in the presence of 0.1% casein (no HSA); type: cell-based; conditions: read-out: Relative cAMP EC50, hGLP-1R;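 also: intracellular cAMP rise after 30 min at 37 °C read by HTRF, normalized between buffer only (0%) and maximal control ligand (100%), four-parameter variable-slope fit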
# [6] = in the presence of 0.1% casein (no HSA), geometric mean
# Sequence of human GLP1-R (P43220 24-463): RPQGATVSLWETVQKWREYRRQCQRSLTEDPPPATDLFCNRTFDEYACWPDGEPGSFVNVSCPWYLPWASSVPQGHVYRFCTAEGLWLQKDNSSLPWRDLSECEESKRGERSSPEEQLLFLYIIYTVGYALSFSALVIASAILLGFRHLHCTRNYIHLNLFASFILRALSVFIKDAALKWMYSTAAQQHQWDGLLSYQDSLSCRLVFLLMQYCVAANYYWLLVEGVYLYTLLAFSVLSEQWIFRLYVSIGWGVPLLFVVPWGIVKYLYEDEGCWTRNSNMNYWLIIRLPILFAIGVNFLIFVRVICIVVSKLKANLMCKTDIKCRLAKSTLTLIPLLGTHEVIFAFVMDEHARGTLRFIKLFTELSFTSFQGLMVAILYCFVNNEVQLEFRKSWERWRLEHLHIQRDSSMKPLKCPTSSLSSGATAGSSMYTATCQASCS
# T2 sequence (P43220 24-463): as above
# Sequence of human GcgR (P47871 26-477): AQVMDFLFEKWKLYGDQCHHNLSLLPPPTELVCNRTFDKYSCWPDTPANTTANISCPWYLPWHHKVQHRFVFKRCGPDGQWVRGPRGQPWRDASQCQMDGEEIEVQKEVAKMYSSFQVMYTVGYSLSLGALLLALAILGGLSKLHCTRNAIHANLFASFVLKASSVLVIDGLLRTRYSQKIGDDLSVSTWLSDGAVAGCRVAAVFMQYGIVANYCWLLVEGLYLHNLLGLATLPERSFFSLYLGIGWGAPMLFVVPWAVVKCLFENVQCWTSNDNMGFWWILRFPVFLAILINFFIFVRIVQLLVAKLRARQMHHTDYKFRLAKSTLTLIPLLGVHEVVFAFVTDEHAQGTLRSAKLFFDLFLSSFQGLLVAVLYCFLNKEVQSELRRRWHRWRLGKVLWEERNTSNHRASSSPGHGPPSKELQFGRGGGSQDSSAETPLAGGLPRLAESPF
# Sequence of hGcgR (P47871 26-477): as above
Compound,EC50 (human GLP1-R),Internalization % TOP (human GLP1-R),EC50 (human GcgR),EC50 (hGIPR [1]; [6]),EC50 (hGLP-1R [2]),EC50 (hGcgR; [6]),Relative Papp (Compared to internal standard) [3],EC50 (hGIPR [4]),EC50 (hGLP-1R [5]; [6]),EC50 (hGIPR [1]),EC50 (hGcgR),EC50 (hGLP-1R [5])
CC[C@H](C)[C@H](NC(=O)[C@H](Cc1ccccc1)NC(=O)[C@H](C)NC(=O)C(C)(C)NC(=O)[C@H](CCC(N)=O)NC(=O)[C@H](C)NC(=O)[C@H](CCCCNC(=O)COCCOCCNC(=O)CC[C@H](NC(=O)CCCCCCCCCCCCCCCCC(=O)O)C(=O)O)NC(=O)[C@H](CCCCN)NC(=O)[C@H](CC(=O)O)NC(=O)[C@H](CC(C)C)NC(=O)[C@](C)(CC(C)C)NC(=O)[C@H](CCCN)NC(=O)[C@H](CO)NC(=O)[C@H](Cc1ccccc1)NC(=O)[C@H](CC(=O)O)NC(=O)[C@H](CO)NC(=O)[C@@H](NC(=O)[C@H](Cc1ccccc1)NC(=O)[C@@H](NC(=O)CNC(=O)[C@H](CCC(N)=O)NC(=O)C(C)(C)NC(=O)[C@@H](N)Cc1ccc(O)cc1)[C@@H](C)O)[C@@H](C)O)C(=O)N[C@@H](CCC(=O)O)C(=O)N[C@@H](Cc1c[nH]c2ccccc12)C(=O)N[C@@H](CC(C)C)C(=O)N[C@@H](CC(C)C)C(=O)N[C@@H](CCC(=O)O)C(=O)NCC(=O)NCC(=O)N1CCC[C@H]1C(=O)N[C@@H](CO)C(=O)N[C@@H](CO)C(=O)NCC(=O)N[C@@H](C)C(=O)N1CCC[C@H]1C(=O)N1CCC[C@H]1C(=O)N1CCC[C@H]1C(=O)N[C@@H](CO)C(=O)NCC(=O)N[C@@H](CCC(=O)O)C(N)=O [Example 119],73.5 nM,43.4%,839 nM,0.179 nM,387 nM,5.6 nM,0.15,19.7 nM,3.67 nM,,,
CC[C@H](C)[C@H](NC(=O)[C@H](Cc1ccccc1)NC(=O)[C@H](C)NC(=O)C(C)(C)NC(=O)[C@H](CCC(N)=O)NC(=O)[C@H](C)NC(=O)[C@H](CCCCNC(=O)CC[C@H](NC(=O)CC[C@H](NC(=O)CCCCCCCCCCCCCCCCC(=O)O)C(=O)O)C(=O)O)NC(=O)[C@H](CCCCN)NC(=O)[C@H](CC(=O)O)NC(=O)[C@H](CC(C)C)NC(=O)[C@](C)(CC(C)C)NC(=O)[C@H](CCCN)NC(=O)[C@H](CO)NC(=O)[C@H](Cc1ccccc1)NC(=O)[C@H](CC(=O)O)NC(=O)[C@H](CO)NC(=O)[C@@H](NC(=O)[C@H](Cc1ccccc1)NC(=O)[C@@H](NC(=O)CNC(=O)[C@H](CCC(N)=O)NC(=O)C(C)(C)NC(=O)[C@@H](N)Cc1ccc(O)cc1)[C@@H](C)O)[C@@H](C)O)C(=O)N[C@@H](CCC(=O)O)C(=O)N[C@@H](Cc1ccc(O)cc1)C(=O)N[C@@H](CC(C)C)C(=O)N[C@@H](CC(C)C)C(=O)N[C@@H](CCC(=O)O)C(=O)N[C@H](C)C(=O)NCC(=O)N1CCC[C@H]1C(=O)N[C@@H](CO)C(=O)N[C@@H](CO)C(=O)NCC(=O)N[C@@H](C)C(=O)N1CCC[C@H]1C(=O)N1CCC[C@H]1C(=O)N1CCC[C@H]1C(=O)N[C@@H](CO)C(=O)NCC(=O)N[C@H](C(N)=O)[C@@H](C)O [Example 204],66.4 nM,45.5%,572 nM,0.181 nM,306 nM,6.92 nM,0.16,16.7 nM,2.34 nM,,,
CC[C@H](C)[C@H](NC(=O)[C@H](Cc1ccccc1)NC(=O)[C@H](C)NC(=O)C(C)(C)NC(=O)[C@H](CCC(N)=O)NC(=O)[C@H](C)NC(=O)[C@H](CCCCNC(=O)COCCOCCNC(=O)CC[C@H](NC(=O)CCCCCCCCCCCCCCCCC(=O)O)C(=O)O)NC(=O)[C@H](CCCCN)NC(=O)[C@H](CC(=O)O)NC(=O)[C@H](CC(C)C)NC(=O)[C@](C)(CC(C)C)NC(=O)[C@H](CCCN)NC(=O)[C@H](CO)NC(=O)[C@H](Cc1ccccc1)NC(=O)[C@H](CC(=O)O)NC(=O)[C@H](CO)NC(=O)[C@@H](NC(=O)[C@H](Cc1ccccc1)NC(=O)[C@@H](NC(=O)CNC(=O)[C@H](CCC(N)=O)NC(=O)C(C)(C)NC(=O)[C@@H](N)Cc1ccc(O)cc1)[C@@H](C)O)[C@@H](C)O)C(=O)N[C@@H](CCC(=O)O)C(=O)N[C@@H](Cc1ccc(O)cc1)C(=O)N[C@@H](CC(C)C)C(=O)N[C@@H](CC(C)C)C(=O)N[C@@H](CCC(=O)O)C(=O)N[C@H](C)C(=O)NCC(=O)N[C@@H](CCCCNC(C)=O)C(=O)N[C@@H](CO)C(=O)N[C@@H](CO)C(=O)NCC(=O)N[C@@H](C)C(=O)N1CCC[C@H]1C(=O)N1CCC[C@H]1C(=O)N1CCC[C@H]1C(=O)N[C@@H](CO)C(=O)NCC(=O)N[C@@H](CCC(=O)O)C(N)=O [Example 208],55.7 nM,49.6%,578 nM,0.159 nM,336 nM,2.69 nM,0.29,,3.72 nM,,,
CC[C@H](C)[C@H](NC(=O)[C@H](Cc1ccccc1)NC(=O)[C@H](C)NC(=O)C(C)(C)NC(=O)[C@H](CCC(N)=O)NC(=O)[C@H](C)NC(=O)[C@H](CCCCNC(=O)COCCOCCNC(=O)CC[C@H](NC(=O)CCCCCCCCCCCCCCCCC(=O)O)C(=O)O)NC(=O)[C@H](CCCCN)NC(=O)[C@H](CC(=O)O)NC(=O)[C@H](CC(C)C)NC(=O)[C@](C)(CC(C)C)NC(=O)[C@H](CCCN)NC(=O)[C@H](CO)NC(=O)[C@H](Cc1ccccc1)NC(=O)[C@H](CC(=O)O)NC(=O)[C@H](CO)NC(=O)[C@@H](NC(=O)[C@H](Cc1ccccc1)NC(=O)[C@@H](NC(=O)CNC(=O)[C@H](CCC(N)=O)NC(=O)C(C)(C)NC(=O)[C@@H](N)Cc1ccc(O)cc1)[C@@H](C)O)[C@@H](C)O)C(=O)N[C@@H](CCC(=O)O)C(=O)N[C@@H](Cc1c[nH]c2ccccc12)C(=O)N[C@@H](CC(C)C)C(=O)N[C@@H](CC(C)C)C(=O)N[C@@H](CCC(=O)O)C(=O)NCC(=O)NCC(=O)N1CCC[C@H]1C(=O)N[C@@H](CO)C(=O)N[C@@H](CO)C(=O)NCC(=O)N[C@@H](C)C(=O)N1CCC[C@H]1C(=O)N1CCC[C@H]1C(=O)N1CCC[C@H]1C(=O)N[C@@H](Cc1c[nH]cn1)C(=O)NCC(=O)N[C@@H](CO)C(N)=O [Example 249],86.2 nM,34.8%,604 nM,0.173 nM,256 nM,5.55 nM,0.04,22.5 nM,,,,
H-Y[Aib]QGT[αMePhe(2-F)]TSD[4Pal][αMeS]I[αMeL]LD[Orn]K([γGlu-γGlu-C18 diacid])AQ[αMe4Pal]EFI[dE][αMeY]LIEGGPSSGAPPPEGGGE-NH2 [Example 761],,,162 nM,,26.1 nM,,0.53,0.635 nM,,0.00686 nM,1.5 nM,0.226 nM
H-Y[Aib]QGT[αMePhe(2-F)]TSD[4Pal][αMeS]I[αMeL]LD[Orn]K([γGlu-γGlu-C18 diacid])AQ[αMe4Pal]EFI[dE][αMeY]LIEGGPSSGAPPPSGGGE-NH2 [Example 743],,,133 nM,,21.2 nM,,0.56,0.432 nM,,0.00694 nM,1.49 nM,0.259 nM
H-Y[Aib]QGT[αMePhe(2-F)]TSD[4Pal][αMeS]I[αMeL]LD[Orn]K([γGlu-γGlu-C18 diacid])AQ[αMe4Pal]EFI[dE][αMeY]LVEGGPSSGEPPPSGS-NH2 [Example 737],,,122 nM,,22.3 nM,,0.69,0.498 nM,,0.00804 nM,1.34 nM,0.285 nM
Y[Aib]QGTFTSDFS[Orn][αMeL]LDKK([AEEA-γGlu-C18 diacid])AQ[Aib]AFIEYLLE[dA]GPSSGEPPPSGE-NH2 [Example 135],,,557 nM,0.246 nM,472 nM,2.53 nM,0.04,23.4 nM,3.3 nM,,,
